This is an account of results in US9655965B2, “Radiosensitizer compounds for use in combination with radiation” (priority 2013, dated 2017).

Entries after “also recorded” stand apart in the source; their conditions may differ.

For data set [1], the system named is plasmid DNA [pGEM 3Zf(−)]. Description: Agarose gel electrophoresis of ionizing-radiation-induced damage to plasmid DNA. Type of data set: biochemical, Escherichia Coli JM 109. The conditions noted are these: 200 μM compound; two-UV-photon ionizing radiation of water; versus pure water. From the text: Ultrapure water for life science with a resistivity of >18.2 MΩ/cm and TOC<1 ppm obtained freshly from a Barnstead Nanopure water system was used. Dibromo-diamino-benzene (Dibromo-phenylenediamine, Compound B) was obtained from TCI-America, while other chemicals and buffer compositions were obtained from Sigma-Aldrich. Plasmid DNA [pGEM 3Zf(−), […]] was extracted from Escherichia Coli JM 109 and purified using QIAprep Kit (Qiagen).
The pump beam at 322 nm, identical to that for fs-TRLS measurements, was used to produce radicals via two-photon excitation of water in DNA solutions. The laser beam was focused into a quartz cell containing 3.0 μg of DNA in 200 μL of buffer solutions. The solutions were stirred during irradiation to produce uniform DNA damage throughout the samples. Aliquots equivalent to 96 ng DNA were removed from the sample cell in various irradiation times for gel electrophoresis. All aliquots were analyzed with a standard agarose gel electrophoresis method, namely, on 1% neutral TAE agarose gel in TAE running buffer. The gel was prestained with 0.5 μg/ml ethidium bromide. […] They were quantified with an AlphaEase FC software.

Data set [2] has as its system human normal cells (GM05757). In words: In vitro radiation-induced toxicity in human normal cells, MTT assay 12 days after X-ray. It is filed as cell-based. The following applies: GM05757, 12-hr treatment, then 0-10 Gy 225 keV X-ray, MTT at 12 days. From the text:
Dibromo-diamino-benzene (Dibromo-phenylenediamine, Compound B) was obtained from TCI-America. Diiodo-diaminobenzene (Compound C) were synthesized, purified and crystallized in our laboratory, and the structures and purity were examined by NMR and mass spectrometry. MEM and fetal bovine serum (FBS), penicillin G and streptomycin were obtained from Hyclone Laboratories (UT, USA). Stock solution of cisplatin was freshly prepared in ultrapure water or saline, and stock solutions of Compounds A, B, C, D were prepared in pure ethanol, where the final concentration of ethanol was ≦1% when treated to cells.
A human skin diploid fibroblast (GM05757 cell line) was obtained from the Coriell Cell Repository directly. Fetal bovine serum (FBS) was obtained from Hyclone Laboratories (UT, USA). The GM05757 normal cells were cultivated with MEM (Hyclone) supplemented with 10% FBS, 100 units/mL penicillin G and 100 μg/mL streptomycin (Hyclone). The cells were maintained at 37° C. in a humidified atmosphere containing 5% CO2.
The radiosensitizing effects of RSCs on cell viability were determined by the 3-[4,5-dimethylthiazol-2-yl]-2,5-diphenyl tetrazoliumbromide (MTT) assay. Cells were cultured in 96-well plates (5×10^3 cells/well) for 24 h. The culture medium was replaced by fresh culture medium and incubated for 12 h with varying drug concentrations. The cells were then irradiated by 225 kV X-ray (PRECISION X-RAD IR 225) at a dose rate of 2 Gy/min with various X-ray doses. After irradiation, the cells were incubated for 12 days. The MTT assay of cell viability was then conducted. Briefly, 100 μl new medium without phenol red containing 1.2 mM MTT (sigma) (i.e., adding 10 μl 12 mM MTT stock solution in PBS) were added to each well and incubated for 4 h. […] The surviving fraction was determined by measuring the absorbance at 540 nm (570 nm for SDS solubilization) using a Multiskan Spectrum UV/Vis microplate reader (Thermo Scientific), which is directly proportional to the number of viable cells.
(Tetrazolium assays rely on reduction of a dye to a coloured formazan, in cell work by metabolically active cells.)

The next data set deals with SCID mice. Description: In vivo toxicity of Compound B in SCID mice. The method, then:
The three groups (five 6-8 week SCID mice/group) in the experiment were: (1) control article (5% EtOH/medium); (2) Compound B 5 mg/kg in 5% EtOH/medium; and (3) Compound B 7 mg/kg in 5% EtOH/medium, as shown in Table 1. Compound B was injected IP every day for 10 days.
6.1.2 Mouse and Compound B Solution Preparation: • 6-8 week SCID mice were used in this study; Compound B as an exemplary RSC was dissolved in 5% EtOH: 95% (cell culture) medium (≈1:20).
6-8 week SCID Mice were individually weighed and injected intraperitoneally (IP) according to body weight for an injection concentration as outlined in the study group table above. […]
The overall drug toxicity in mice was observed by a survival assay and body weight measurements, and the acute drug toxicity was measured by blood collection and histology. The hepatotoxicity (ALT, ALP, AST), nephrotoxicity (blood BUN, creatinine), and electrolytes (Na, K, etc) were analyzed by HPLC-mass spectroscopy. […]
All animals were observed post administration, and at least once a day, more if deemed necessary, during the pre-treatment and treatment periods for mortality and morbidity. In particular, animals were monitored for signs of ill health such as body weight loss, change in appetite, behavior changes such as altered gait, lethargy and gross manifestations of stress.

Data set [3] in a line: In vivo pharmacokinetics of Compound B in SCID mice. An excerpt: Blood samples were collected from the saphenous vein of mice at various time points after IP injection of the compound into the mice and then analyzed using HPLC-Mass Spectrometry.

As to `Nc1cc(Br)c(Br)cc1N` [Compound B, 4,5-dibromo-1,2-phenylenediamine], the “radiation-induced DNA double-strand breaks (DSBs)” value in data set [1] is given as “significantly enhanced; also recorded: significant enhancement of DSBs”. In addition, in data set [2], the “radiation toxicity in human normal cells” value is listed as “no radiation toxicity”. Also, in the data set on SCID mice (IP 0, 5 and 7 mg/kg daily for 10 days), the “overall toxicity in mice (survival, body weight)” value was “no overall drug toxicity; also recorded: no overall toxicity in mice”. Besides, in the data set on SCID mice (SCID, mouse, in vivo, 10 days), the “survival rate of mice” value is reported as 100%. In addition, in data set [3] (after IP injection), the “detection of compound in blood/plasma” value is “significant levels; also recorded: detected in the plasma” and the “elimination from the body” value was “well expelled from the body within a few hours”. Besides, the “time of highest concentration after i.p. injection” value in data set [3] (plasma/blood, IP 0-7 mg/kg, HPLC-Mass Spectrometry) was “about 20 minutes”. The “time at which concentration dropped to nearly zero” value in data set [3] (plasma/blood, after i.p. injection) was “about 3 hr”.
